Test results published in PMC7824259, “Novel Cecropin-4 Derived Peptides against Methicillin-Resistant Staphylococcus aureus” (Antibiotics, 2021).
In brackets after ≈: the same amount, converted by molar mass. Where two headings read alike, the source gives them in different places. No end group written: not given here.

Tests used:
[1] = system: human red blood cells; type: cell-based; settings: for HL50 (50% of human red blood cells were lysed): 1 h
Description: The ability of the peptide to cause hemoglobin leakage was evaluated, as described in a previous study. Human erythrocytes were purchased from Rockland Immunochemicals (Limerick, PA, USA), washed 3 × times in equal volume PBS, and resuspended as 4% hRBCs solution. One hundred microliters of the blood cells were added to 100 µl of the peptide solution in PBS serially diluted from 4–128 µg/mL in a 96-well microtiter plate. PBS and 1% Triton-X 100 were used as […] controls. Upon adding the blood cells, the plate was incubated at 37 °C for 1 h and then centrifuged at 500× g for 5 min. One hundred microliters of the supernatant were transferred to a fresh 96-well plate, and absorbance was read at 540 nm. The hemolysis percentage was calculated considering 100% hemolysis caused by 1% Triton X-100 and 0% on PBS. The values were represented as the mean of duplicates. The following formula calculated the percentage of hemolysis: (A540 nm in the peptide solution − A540 nm in PBS)/(A540 nm of 1% Triton X-100 treated sample − A540 nm in PBS) × 100. Zero and 100% percentage hemolysis were determined in PBS and […], respectively.

[2] = system: S. aureus MW2; assay: Checkerboard synergy of C18 with clinical antibacterial agents; type: cell-based, Staphylococcus aureus; settings: for FICI (fractional inhibition concentration index): named agent combined with C18, S. aureus MW2, 8 × 8 checkerboard, synergy FICI ≤ 0.5, additive 0.5 < FICI ≤ 4, antagonism > 4; for Kind of interaction with C18: named agent combined with C18, S. aureus MW2, checkerboard
Description: The checkerboard assay was used to evaluate the synergy of C18 with conventional antibacterial agents against S. aureus MW2 [40]. Briefly, an 8 × 8 matrix was formed in a 96-well microtiter petri dish with two-fold serial dilutions of C18 combined with each conventional antibacterial agent. The fractional inhibition concentration index (FICI) was calculated: FICI = MIC of compound A in combination / MIC of compound A alone +MIC of compound B in combination / MIC of compound B alone.

[3] = Rhodamine-BF dye leakage from liposomes; settings: liposomes DOPC: Cholesterol, 55:40; 1 h incubation
Text: We also performed dye leakage experiments to further understand the membrane interactive nature of the peptides. A dye, rhodamine-BF, entrapped in liposomes (DOPC: Cholesterol, 55:40) was subjected to the action of the peptides.

[4] = system: S. aureus MW2; assay: microbe, parasite or virus in culture; type: cell-based, Staphylococcus aureus; settings: for MIC: Staphylococcus aureus, MW2, 18 h
Description: Broth microdilution assays determined the MICs of peptides following the method described by the Clinical and Laboratory Standards Institute. In short, for each peptide, serial dilutions (50 µL) in duplicates were made in Mueller-Hinton broth (BD, Franklin Lakes, NJ, USA) in a 96-well plate (Cat No. 3595, Corning, NY, USA). […] After bacterial addition, the plates were incubated at 37°C for 18 h. […] To investigate each peptide’s activity in high salt concentrations or human serum, the MIC was again tested as described in the previous paragraph of the experimental method. […] All MIC assays were conducted in duplicate, with each experiment replicated twice.

[5] = system: S. aureus MW2; assay: Propidium iodide membrane permeability; type: cell-based, Staphylococcus aureus; settings: 32 µg/mL, 1 h incubation
Description: Fluorescence-based bacterial permeation assay was used to follow the membrane-oriented interactions of the designed peptides. The propidium iodide probe is generally used to establish a pore formation mechanism of AMPs. In short, S. aureus MW2 was inoculated in MHB and grown overnight at 37 °C overnight with shaking at 220 rpm. A fresh inoculation was done the next day in the same media to achieve exponential growth. The culture was then washed with PBS 3 times and adjusted to OD600 ~0.3 in PBS. We added 48 μL of this culture to a 96-well black clear-bottom plate (Cat no. 3904, Corning, NY, USA) containing 50 μL of serially diluted 2 × peptide concentrations, and 2 μL of propidium iodide (20 μM) was added per well. Fluorescence was measured by SpectraMax M2 (Molecular Devices, CA, USA) with an excitation wavelength of 584 nm and an emission wavelength of 620 nm after 1 h at room temperature.

[6] = system: HepG2 cells; assay: Mammalian cell cytotoxicity (WST-1); type: cell-based, human; settings: 64 µg/mL, HepG2, 24 h
Description: HepG2 cells were used to assess the mammalian cell cytotoxicity of AMPs, as described previously. Cells were grown in Dulbecco’s Modified Eagle Medium (DMEM) (Gibco, MD, USA) supplemented with 10% fetal bovine serum (FBS) (Gibco, MD, USA) and 1% penicillin/streptomycin (Gibco, MD, USA) and maintained at 37°C in 5% CO2. Cells were harvested and resuspended in a fresh medium, and 100 µL were distributed in a 96-well plate at […]. AMPs were serially diluted in serum and antibiotic-free DMEM added to the monolayer of the cells, and the plates were incubated at 37 °C in 5% CO2 for 24 h. At 4 h, before the end of the incubation period, 10 µL of 2-(4-iodophenyl)-3-(4-nitrophenyl)-5-(2, 4-disulfophenyl)-2H-tetrazolium (WST-1) solution (Roche, Mannheim, Germany) was added to each well. WST-1 reduction was monitored at 450 nm using a Vmax microplate reader. Assays were performed in triplicate, and the percentage of cell survival was calculated.

[7] = system: psGABO-SPE plasmid DNA; assay: Plasmid band shift assay (DNA binding)
Description: The methods in the reference were used to detect the ability of C18 binding DNA [43]. Briefly, the reaction of 20 μL containing 100 ng psGABO-SPE plasmid DNA (Addgene, MA, USA), polymyxin B, and C18 (1.95–500 μM) or ddH2O (control) was incubated in TE (Tris-EDTA) buffer (Invitrogen, CA, USA) at 37 °C for 2 h. The products were detected in 1% agarose gel electrophoresis, and plasmid migration was observed on a G: BOX Chemi XT4 gel doc system.

[8] = system: G. mellonella larvae; assay: Galleria mellonella toxicity; type: in vivo; settings: uninfected larvae, doses 4, 8, 16, 32 mg/kg, even at 32 mg/kg, until 120 h, n = 16/group
Description: To study the protective effects of the peptide C18 in an in vivo model, we used an established wax moth model system. G. mellonella larvae (Vanderhorst Wholesale, St. Mary’s, OH, USA) were distributed as a different group with randomly selected larvae (n = 16/group). The S. aureus MW2 bacteria were grown to exponential phase from overnight culture. Cells were then washed with PBS three times and finally suspended in PBS with an OD600 = 0.3. Experimental groups consisted of untouched (no injection), PBS (vehicle), bacterial infection group, and treatment group. Vancomycin was used as a positive control. […] All injections were performed using a Hamilton syringe on the last left proleg. The larvae were incubated at 37 °C for 5 days, with live and dead counts being performed every 24 h.

| Molecule | HL50 (50% of human red blood cells were lysed) [1] [µg/mL] | FICI (fractional inhibition concentration index) [2] | Kind of interaction with C18 [2] | further results |
| --- | --- | --- | --- | --- |
| LWKIWKKIWRVGWNWR [C13] | 48 |  |  |  |
| Cc1onc(-c2ccccc2)c1C(=O)N[C@@H]1C(=O)N2[C@@H]1SC(C)(C)[C@@H]2C(=O)O [oxacillin] |  | 0.75 | additive effect |  |
| CN[C@H](CC(C)C)C(=O)N[C@H]1C(=O)N[C@@H](CC(N)=O)C(=O)N[C@H]2C(=O)N[C@H]3C(=O)N[C@H](C(=O)N[C@H](C(=O)O)c4cc(O)cc(O)c4-c4cc3ccc4O)[C@H](O)c3ccc(c(Cl)c3)Oc3cc2cc(c3O[C@@H]2O[C@H](CO)[C@@H](O)[C@H](O)[C@H]2O[C@H]2C[C@](C)(N)[C@H](O)[C@H](C)O2)Oc2ccc(cc2Cl)[C@H]1O [vancomycin] |  | 0.625 | additive effect | Rhodamine-BF fluorescence (dye leakage) [3]: lowest; MIC against S. aureus MW2, Serum (5%) ([4]; MHB with human serum (5%), 37 °C, 18 h, duplicate, replicated twice): not changed; MIC ([4]; read-out: MIC against S. aureus MW2, CaCl2 (2 mM)): 2 µg/mL (≈ 1.38 µM); MIC ([4]; read-out: MIC against S. aureus MW2, MHB): 2 µg/mL (≈ 1.38 µM); MIC ([4]; read-out: MIC against S. aureus MW2, NaCl (150 mM)): 2 µg/mL (≈ 1.38 µM); Propidium iodide fluorescence [5]: unable to induce any fluorescence |
| LWKIWWKIWRVWKNWR [C22] | 4 |  |  | Reduction of live-cell contents [6]: 20% |
| polymyxin B |  |  |  | Concentration of significant DNA binding ([7]; 100 ng plasmid, TE buffer, 37 °C, 2 h, 1% agarose gel, 1.95–500 μM tested): 31.2 µM; Concentration of significant DNA binding ([7]; same concentration in brackets): 37.1 µg/mL |
| CNC(C)C1CCC(N)C(OC2C(N)CC(N)C(OC3OCC(C)(O)C(NC)C3O)C2O)O1 (stereo not shown) [gentamicin] |  | 1.25 | additive effect |  |
| LWKIWKKIWRVWKNWR [C16] | 16 |  |  |  |
| CCCCCCCCCC(=O)N[C@@H](Cc1c[nH]c2ccccc12)C(=O)N[C@H](CC(N)=O)C(=O)N[C@@H](CC(=O)O)C(=O)N[C@@H]1C(=O)NCC(=O)N[C@@H](CCCN)C(=O)N[C@@H](CC(=O)O)C(=O)N[C@H](C)C(=O)N[C@@H](CC(=O)O)C(=O)NCC(=O)N[C@H](CO)C(=O)N[C@@H]([C@H](C)CC(=O)O)C(=O)N[C@@H](CC(=O)c2ccccc2N)C(=O)O[C@@H]1C [daptomycin] |  |  | synergistic effect |  |
| LWKIGKKIWRVLWNWR [C18] | 16 |  |  | Larvae survival (toxicity) [8]: more than 70%; HL50 relative to MIC against MRSA MW2 [1]: 4 times |
